Laboratory results published in the supplement of paper PMC9663587.

How the values were obtained:
Cabozantinib = compound: COc1cc2nccc(Oc3ccc(NC(=O)C4(C(=O)Nc5ccc(F)cc5)CC4)cc3)c2cc1OC [Cabozantinib]
Paclitaxel = compound: CC(=O)O[C@H]1C(=O)[C@@]2(C)[C@H]([C@H](OC(=O)c3ccccc3)[C@]3(O)C[C@H](OC(=O)[C@H](O)[C@@H](NC(=O)c4ccccc4)c4ccccc4)C(C)=C1C3(C)C)[C@]1(OC(C)=O)CO[C@@H]1C[C@@H]2O [Paclitaxel]
[1] = compound: CCN1CCN(Cc2ccc(Nc3ncc(F)c(-c4cc(F)c5nc(C)n(C(C)C)c5c4)n3)nc2)CC1
BSJ-03-123 = compound: CC(=O)c1c(C)c2cnc(Nc3ccc(N4CCN(CCOCCOCCOCCNC(=O)COc5cccc6c5C(=O)N(C5CCC(=O)NC5=O)C6=O)CC4)cn3)nc2n(C2CCCC2)c1=O [BSJ-03-123]
Vorinostat = compound: O=C(CCCCCCC(=O)Nc1ccccc1)NO [Vorinostat]
AZD5363 = compound: NC1(C(=O)N[C@@H](CCO)c2ccc(Cl)cc2)CCN(c2nc[nH]c3nccc2-3)CC1 [AZD5363]
Buparlisib/NVP-BKM120 = compound: Nc1cc(C(F)(F)F)c(-c2cc(N3CCOCC3)nc(N3CCOCC3)n2)cn1 [Buparlisib/NVP-BKM120]
SHP099 = compound: CC1(CCN(CC1)C2=CN=C(C(=N2)N)C3=C(C(=CC=C3)Cl)Cl)N [SHP099]
[2] = compound: CCc1cnn2c(NCc3ccc[n+]([O-])c3)cc(N3CCCC[C@H]3CCO)nc12
LEE011/Ribociclib = compound: CN(C)C(=O)c1cc2cnc(Nc3ccc(N4CCNCC4)cn3)nc2n1C1CCCC1 [LEE011/Ribociclib]; experiment: GR value, 72 h; higher = faster growth (1 = untreated, <0 = killing);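 also: breast cancer and non-malignant breast epithelial lines, nine half-log doses, viable cells counted by Hoechst and LIVE/DEAD dye imaging versus time-zero plates and DMSO controls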
THZ1 = compound: CN(C)C/C=C/C(=O)Nc1ccc(C(=O)Nc2cccc(Nc3ncc(Cl)c(-c4c[nH]c5ccccc45)n3)c2)cc1 [THZ1]; experiment: as above
[3] = compound: CCN1CCN(Cc2ccc(Nc3ncc(F)c(-c4cc(F)c5nc(C)n(C(C)C)c5c4)n3)nc2)CC1; experiment: as above
[4] = compound: CC(=O)c1c(C)c2cnc(Nc3ccc(N4CCNCC4)cn3)nc2n(C2CCCC2)c1=O; experiment: as above
THZ531 = compound: CN(C)C/C=C/C(=O)Nc1ccc(C(=O)N2CCC[C@@H](Nc3ncc(Cl)c(-c4c[nH]c5ccccc45)n3)C2)cc1 [THZ531]; experiment: as above
YKL-5-124 = compound: C=CC(=O)Nc1ccc(C(=O)Nc2[nH]nc3c2CN(C(=O)N[C@H](CN(C)C)c2ccccc2)C3(C)C)cc1 [YKL-5-124]; experiment: as above
Flavopiridol = compound: CN1CC[C@H](c2c(O)cc(O)c3c(=O)cc(-c4ccccc4Cl)oc23)[C@H](O)C1 [Flavopiridol]; experiment: as above
[5] = compound: CCc1cnn2c(NCc3ccc[n+]([O-])c3)cc(N3CCCC[C@H]3CCO)nc12; experiment: as above
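For GR50, 72 h in this document: breast cancer and non-malignant breast epithelial cell lines, Deep Dye Drop or Dye Drop imaging, nine half-log doses, GR normalized to time-zero plates and DMSO-only controls.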

SUM190PT
GR50, 72 h (Cabozantinib): 6.1 µM
GR50, 72 h (Paclitaxel): 0.000878 µM
GR50, 72 h [1]: 0.0206 µM
GR50, 72 h (BSJ-03-123): 0.0593 µM
GR50, 72 h (Vorinostat): 0.402 µM
GR50, 72 h (AZD5363): 2.35 µM
GR50, 72 h (Buparlisib/NVP-BKM120): 1.04 µM
GR50, 72 h (SHP099): > 10 µM
GR50, 72 h [2]: 0.0215 µM
GR value (LEE011/Ribociclib; 0.001 µM): 0.777 GR
GR value (LEE011/Ribociclib; 0.003162 µM): 0.632 GR
GR value (LEE011/Ribociclib; 0.01 µM): 0.576 GR
GR value (LEE011/Ribociclib; 0.03162 µM): 0.542 GR
GR value (LEE011/Ribociclib; 0.1 µM): 0.453 GR
GR value (LEE011/Ribociclib; 0.3162 µM): 0.46 GR
GR value (LEE011/Ribociclib; 1 µM): 0.0072 GR
GR value (LEE011/Ribociclib; 3.162 µM): 0.199 GR
GR value (LEE011/Ribociclib; 10 µM): 0.383 GR
GR value (THZ1; 0.0001 µM): 1.05 GR
GR value (THZ1; 0.0003162 µM): 0.839 GR
GR value (THZ1; 0.001 µM): 0.923 GR
GR value (THZ1; 0.003162 µM): 0.842 GR
GR value (THZ1; 0.01 µM): 0.0733 GR
GR value (THZ1; 0.03162 µM): -0.46 GR
GR value (THZ1; 0.1 µM): -0.462 GR
GR value (THZ1; 0.3162 µM): -0.331 GR
GR value (THZ1; 1 µM): -0.467 GR
GR value ([3]; 0.001 µM): 0.779 GR
GR value ([3]; 0.003162 µM): 0.586 GR
GR value ([3]; 0.01 µM): 0.444 GR
GR value ([3]; 0.03162 µM): 0.349 GR
GR value ([3]; 0.1 µM): 0.395 GR
GR value ([3]; 0.3162 µM): 0.309 GR
GR value ([3]; 1 µM): 0.343 GR
GR value ([3]; 3.162 µM): 0.259 GR
GR value ([3]; 10 µM): -0.611 GR
GR value ([4]; 0.0003162 µM): 0.986 GR
GR value ([4]; 0.001 µM): 1.02 GR
GR value ([4]; 0.003162 µM): 1.09 GR
GR value ([4]; 0.01 µM): 0.949 GR
GR value ([4]; 0.03162 µM): 0.62 GR
GR value ([4]; 0.1 µM): 0.316 GR
GR value ([4]; 0.3162 µM): 0.35 GR
GR value ([4]; 1 µM): 0.336 GR
GR value ([4]; 3.162 µM): 0.378 GR
GR value (THZ531; 0.0001 µM): 1.07 GR
GR value (THZ531; 0.0003162 µM): 0.955 GR
GR value (THZ531; 0.001 µM): 0.949 GR
GR value (THZ531; 0.003162 µM): 0.966 GR
GR value (THZ531; 0.01 µM): 1.12 GR
GR value (THZ531; 0.03162 µM): 0.889 GR
GR value (THZ531; 0.1 µM): -0.322 GR
GR value (THZ531; 0.3162 µM): -0.725 GR
GR value (THZ531; 1 µM): -0.492 GR
GR value (YKL-5-124; 0.001 µM): 0.557 GR
GR value (YKL-5-124; 0.003162 µM): 0.365 GR
GR value (YKL-5-124; 0.01 µM): 0.267 GR
GR value (YKL-5-124; 0.03162 µM): 0.198 GR
GR value (YKL-5-124; 0.1 µM): 0.212 GR
GR value (YKL-5-124; 0.3162 µM): 0.0489 GR
GR value (YKL-5-124; 1 µM): 0.154 GR
GR value (YKL-5-124; 3.162 µM): 0.102 GR
GR value (YKL-5-124; 10 µM): -0.42 GR
GR value (Flavopiridol; 0.0001 µM): 0.999 GR
GR value (Flavopiridol; 0.0003162 µM): 1.06 GR
GR value (Flavopiridol; 0.001 µM): 0.935 GR
GR value (Flavopiridol; 0.003162 µM): 0.883 GR
GR value (Flavopiridol; 0.01 µM): 0.661 GR
GR value (Flavopiridol; 0.03162 µM): 0.785 GR
GR value (Flavopiridol; 0.1 µM): 0.58 GR
GR value (Flavopiridol; 0.3162 µM): 0.0012 GR
GR value (Flavopiridol; 1 µM): -0.382 GR
GR value ([5]; 0.0001 µM): 0.917 GR
GR value ([5]; 0.0003162 µM): 0.931 GR
GR value ([5]; 0.001 µM): 0.951 GR
GR value ([5]; 0.003162 µM): 1.06 GR
GR value ([5]; 0.01 µM): 0.98 GR
GR value ([5]; 0.03162 µM): -0.207 GR
GR value ([5]; 0.1 µM): -0.627 GR
GR value ([5]; 0.3162 µM): -0.643 GR
GR value ([5]; 1 µM): -0.724 GR

SUM229PE
GR50, 72 h (Cabozantinib): 6.79 µM
GR50, 72 h (Paclitaxel): 0.00176 µM
GR50, 72 h [1]: 0.531 µM
GR50, 72 h (BSJ-03-123): 1.64 µM
GR50, 72 h (Vorinostat): 3.48 µM
GR50, 72 h (AZD5363): > 10 µM
GR50, 72 h (Buparlisib/NVP-BKM120): 1.27 µM
GR50, 72 h (SHP099): > 10 µM
GR50, 72 h [2]: 0.0141 µM
GR value (LEE011/Ribociclib; 0.001 µM): 0.91 GR
GR value (LEE011/Ribociclib; 0.003162 µM): 0.911 GR
GR value (LEE011/Ribociclib; 0.01 µM): 0.822 GR
GR value (LEE011/Ribociclib; 0.03162 µM): 0.806 GR
GR value (LEE011/Ribociclib; 0.1 µM): 0.758 GR
GR value (LEE011/Ribociclib; 0.3162 µM): 0.722 GR
GR value (LEE011/Ribociclib; 1 µM): 0.728 GR
GR value (LEE011/Ribociclib; 3.162 µM): 0.633 GR
GR value (LEE011/Ribociclib; 10 µM): 0.562 GR
GR value (THZ1; 0.0001 µM): 1 GR
GR value (THZ1; 0.0003162 µM): 1 GR
GR value (THZ1; 0.001 µM): 1.04 GR
GR value (THZ1; 0.003162 µM): 0.953 GR
GR value (THZ1; 0.01 µM): 0.65 GR
GR value (THZ1; 0.03162 µM): 0.283 GR
GR value (THZ1; 0.1 µM): -0.0615 GR
GR value (THZ1; 0.3162 µM): -0.216 GR
GR value (THZ1; 1 µM): -0.297 GR
GR value ([3]; 0.001 µM): 0.924 GR
GR value ([3]; 0.003162 µM): 0.888 GR
GR value ([3]; 0.01 µM): 0.831 GR
GR value ([3]; 0.03162 µM): 0.727 GR
GR value ([3]; 0.1 µM): 0.611 GR
GR value ([3]; 0.3162 µM): 0.56 GR
GR value ([3]; 1 µM): 0.439 GR
GR value ([3]; 3.162 µM): 0.343 GR
GR value ([3]; 10 µM): 0.284 GR
GR value ([4]; 0.0003162 µM): 0.988 GR
GR value ([4]; 0.001 µM): 0.983 GR
GR value ([4]; 0.003162 µM): 0.933 GR
GR value ([4]; 0.01 µM): 0.906 GR
GR value ([4]; 0.03162 µM): 0.848 GR
GR value ([4]; 0.1 µM): 0.711 GR
GR value ([4]; 0.3162 µM): 0.563 GR
GR value ([4]; 1 µM): 0.536 GR
GR value ([4]; 3.162 µM): 0.392 GR
GR value (THZ531; 0.0001 µM): 1.03 GR
GR value (THZ531; 0.0003162 µM): 0.991 GR
GR value (THZ531; 0.001 µM): 0.943 GR
GR value (THZ531; 0.003162 µM): 1.01 GR
GR value (THZ531; 0.01 µM): 1.07 GR
GR value (THZ531; 0.03162 µM): 1.08 GR
GR value (THZ531; 0.1 µM): 0.915 GR
GR value (THZ531; 0.3162 µM): 0.506 GR
GR value (THZ531; 1 µM): -0.133 GR
GR value (YKL-5-124; 0.001 µM): 0.467 GR
GR value (YKL-5-124; 0.003162 µM): 0.321 GR
GR value (YKL-5-124; 0.01 µM): 0.295 GR
GR value (YKL-5-124; 0.03162 µM): 0.291 GR
GR value (YKL-5-124; 0.1 µM): 0.27 GR
GR value (YKL-5-124; 0.3162 µM): 0.225 GR
GR value (YKL-5-124; 1 µM): 0.238 GR
GR value (YKL-5-124; 3.162 µM): 0.17 GR
GR value (YKL-5-124; 10 µM): -0.0733 GR
GR value (Flavopiridol; 0.0001 µM): 0.982 GR
GR value (Flavopiridol; 0.0003162 µM): 0.93 GR
GR value (Flavopiridol; 0.001 µM): 0.925 GR
GR value (Flavopiridol; 0.003162 µM): 0.954 GR
GR value (Flavopiridol; 0.01 µM): 0.927 GR
GR value (Flavopiridol; 0.03162 µM): 0.914 GR
GR value (Flavopiridol; 0.1 µM): 0.559 GR
GR value (Flavopiridol; 0.3162 µM): 0.0326 GR
GR value (Flavopiridol; 1 µM): -0.182 GR
GR value ([5]; 0.0001 µM): 1.04 GR
GR value ([5]; 0.0003162 µM): 1.02 GR
GR value ([5]; 0.001 µM): 0.991 GR
GR value ([5]; 0.003162 µM): 1.01 GR
GR value ([5]; 0.01 µM): 0.796 GR
GR value ([5]; 0.03162 µM): -0.122 GR
GR value ([5]; 0.1 µM): -0.194 GR
GR value ([5]; 0.3162 µM): -0.203 GR
GR value ([5]; 1 µM): -0.209 GR
